Patent US20110213236A1, “THERAPEUTIC COMPOSITIONS, DEVICES AND METHODS FOR OBSERVING TREATED TISSUES” (IMMUNOPATH PROFILE, INC., priority 2008, published 2011)

Columns and labels:
Format in all cases: in vivo, human
gout = test: Gout; conditions: locally added to the transdermal cream
Source text: This acute musculoskeletal strain and severe foot pain occurred when getting out of bed, and standing with bare feet. The strain was associated with extensive standing and walking without their customary shoe arch support. […] The use of Advil liquid filled capsules solubilized ibuprofen locally added to the transdermal cream expedited the reversal of acute gout after one-two applications.
When used transdermally on all these examples, the permeability was increased with the subsequent use of the heating pad, but in the case of the Gout, it was used at its mildest level. […] In the treatment of Gout, the patient responded first to the Resveratrol enriched transdermal cream as in Example Group 2 locally applied used 3 times daily, with Garlic powder by Oregon Wild Harvest, specially processed, air-dried, and ground with a water-cooled grinding system to avoid generating heat, was sprinkled onto the wound as an anti-fungal agent derived from the cloves and root system of the Garlic plant and serving as a GRAS item to impart the innate immunity found in the defensin adaptogen of the plant, with good success.

atrial fibrillation = test: Atrial fibrillation patient treated with Cardizem and subject composition
Source text: We see the same effect in the remarkable drug, Levodopa, in the treatment of Parkinsonism with the side effects of stroke, heart attack, and substantia nigra, basal ganglia damage. […] The total studies were almost 30,000 in number and BIOMARKERS TISSUE […] AND […] TARGETS FOR CARDIAC […] Cardiac arrhythmia nutritional deficiencies, 496 studies compared with:
Vitamin B1 was cited as the most critical of preventing and reversing arrhythmia in starvation studies. Omega-3 fish oil was shown pre-clinically to be effective in the animal heart studies: after it was digested from and enzymatic release from glycerol was not only shown by Leaf in vitro in the isolated beating animal heart muscle to prevent toxicity effects of toxic chemicals. On our chemical moiety orientated spreadsheet where we listed more than 1,400 studies documenting the efficacy of magnesium.
With complete components listed in the spreadsheet of indicated diseases, giving a more complete list, provides by maximizing and optimizing efficacy and safety in the foregoing subject composition free of undesirable effects not only for the treatment of disease but for averting these undesirable side-effects. […]

[1] = test system: degenerative osteoarthritis of the knee; test: Degenerative osteoarthritis of the knee and pulled ligament, lotion; conditions: 600 mg
Protocol: A dentist was diagnosed with degenerative osteoarthritis of the left knee in 2001, by an orthopedic surgeon at the Henry Ford Health System in Farmington Hillsi Mich. At that time, they were […], and was working 55 hours per week at their dental practice. The orthopedic surgeon advised a complete knee replacement since the joint space was minimal as per the M.Rt. The meniscus had worn away from athletics and job requirements. The option was chosen of using occasional steroid injections in times of severe inflammation along with the daily use of Celebrex until they could no longer function, rather than have such an irreversible traumatic operation, at their age. The doctor agreed. Their quality of life was affected as was their comfort during work.
A few years later, the right knee ligaments were starting to weaken resulting in much pain and dysfunction, the now patient's gait was hobbled to a severe limp.
A composition of the subject invention in lotion form was applied twice daily after warming the area with a moist-heat heating pad for a few minutes.
Plans for a knee replacement were put on hold. The patient subsequently suffered a ligament pulled ligament in the groin. The ligament was also treated with the same composition In three days the pain was gone.

SMILES: CC(C)Cc1ccc(C(C)C(=O)O)cc1 (stereo not drawn) [Advil, ibuprofen]
- applications until reversal of acute gout (gout): one-two

SMILES: COc1ccc([C@@H]2Sc3ccccc3N(CCN(C)C)C(=O)[C@@H]2OC(C)=O)cc1 [Cardizem]
- side effects on the second dose (atrial fibrillation): pain, inability to walk, and weakness

SMILES: CC(C)Cc1ccc(C(C)C(=O)O)cc1 (stereo not drawn) [Ibuprofen]
- effect on knee pain and dysfunction [1]: helpful but not therapeutic
